Measured values taken from patent US11478479B2, “Dosing with an azolopyrimidine compound” (ARCUS BIOSCIENCES, INC., priority 2018, dated 2022).

Legend:
[1] = molecular target: T1, A2aR (Homo sapiens, UniProt P29274); experiment: pCREB (marker for A2R inhibition) by flow cytometry in blood CD8+ T cells stimulated ex vivo with 5 μM NECA
T1 construct: all subjects responded to 5 μM NECA by increasing the levels of pCREB in their blood CD8+ T cells; endogenous in cells; host or cells: blood CD8+ T cells of trial subjects (ex vivo)
T1 sequence (P29274 whole entry): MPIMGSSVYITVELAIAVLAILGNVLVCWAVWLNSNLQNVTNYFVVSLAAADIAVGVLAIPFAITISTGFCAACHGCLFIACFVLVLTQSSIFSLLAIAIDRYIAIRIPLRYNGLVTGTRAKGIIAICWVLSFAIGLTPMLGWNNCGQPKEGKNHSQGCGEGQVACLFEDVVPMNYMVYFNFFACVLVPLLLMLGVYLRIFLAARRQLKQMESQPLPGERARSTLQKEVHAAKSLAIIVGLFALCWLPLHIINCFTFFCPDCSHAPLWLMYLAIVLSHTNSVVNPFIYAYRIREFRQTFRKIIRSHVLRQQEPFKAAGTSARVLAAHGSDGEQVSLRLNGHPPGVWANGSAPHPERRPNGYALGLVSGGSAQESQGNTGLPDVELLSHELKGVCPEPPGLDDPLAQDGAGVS
Source text: The assessment of pCREB (a marker for A2R inhibition) by flow cytometry will be conducted during the study.

[2] = Single ascending dose (SAD) pharmacokinetics, Compound I in plasma; type: in vivo, human
Source text: The SAD part consists of 5 groups of 8 healthy young male and female participants, gender balanced to the extent possible, receiving a single oral dose in Groups 1 to 4 or 2 doses in Group 5 of Compound I or placebo (randomized 3:1, active vs placebo, respectively). All participants in the SAD portion of the study must be fasting prior to receiving Compound I. All groups will be evaluated based on pharmacokinetic (PK), safety and tolerability prior to escalation to the next highest group or starting the MAD portion of the study.
For Groups 1 to 4, the study drug will be administered with the participant in the upright position. Study drug will be administered to participants between 08:00 and 9:00 hours in the morning. Before the morning dose, participants will be fasted overnight for at least 10 hours following a light supper on the evening before. Within a period, dosing should be at the same time each day 15 minutes. The study drug will be swallowed together with 240 mL tap water. The study drug should not be chewed. Fasting will continue for a period of 4 hours after drug administration. During fasting, no fluids are allowed except water; however, water is not allowed from 2 hours pre-dose until 1 hour post-dose. When not fasting, non-caffeinated fluids are allowed ad libitum. […]

[3] = Safety and tolerability in healthy volunteers; type: in vivo, human; details: doses of up to 150 mg
Source text: Safety and tolerability assessments will consist of adverse events (AEs), clinical laboratory, vital signs, 12-lead ECG, telemetry, physical examination, Bond and Lader Visual Analog Scale (VAS) of Mood and Alertness, and Digit Symbol Substitution Test (DSST). Assessments will be performed in accordance with the schedules of assessments.

Cc1c(C#N)cccc1-c1cc(-c2cn(Cc3cccc(C(C)(C)O)n3)nn2)nc(N)n1 [Compound I, 3-(2-amino-6-(1-((6-(2-hydroxypropan-2-yl)pyridin-2-yl)methyl)-1H-1,2,3-triazol-4-yl)pyrimidin-4-yl)-2-methylbenzonitrile]
inhibition at 75 mg ([1]; 75 mg once daily, in the presence of 5 μM NECA, projected from single-dose PK profiles, FIG. 2, read-out: expected inhibition of A2R at steady-state plasma levels): 90%
inhibition of NECA-mediated activation of A2aR ([1]; 150 mg, 24 hours after dosing, 5 μM NECA): approximately 90%
pCREB response relative to the response seen pre-dose ([1]; 150 mg, 24 hours after dosing, blood CD8+ T cells, 5 μM NECA, FIG. 3): approximately 10%
pCREB activation signal in response to NECA ([1]; 150 mg, two hours after dosing, blood CD8+ T cells, 5 μM NECA, FIG. 3): no detectable increase in pCREB levels
half-life ([2]; both sexes, human, plasma, healthy volunteers, following a single oral dose): ~20 h
plasma levels of Compound I with increased doses ([2]; healthy volunteers, 10, 25, 75 and 150 mg, FIG. 1): dose proportional increases
safety issues [3]: no safety issues have been identified
